Our source for the IC50 values is patent US20240317744A1, “Bicyclic Ureas As Kinase Inhibitors” (Incyte Corporation, priority 2023, published 2024).

Some results are limits rather than exact numbers.

For test [1], the target named is T1, catalytic domain (JH1, amino acids 826-1132) of human JAK2 (Homo sapiens, UniProt O60674).
T1 construct: catalytic domain (JH1, amino acids 826-1132) of human JAK2; FLAG (N); biotin (biotinylated); purchased Carna Biosciences 08-445-20N; host or cells: baculovirus expression system
T1 sequence (O60674 826-1132): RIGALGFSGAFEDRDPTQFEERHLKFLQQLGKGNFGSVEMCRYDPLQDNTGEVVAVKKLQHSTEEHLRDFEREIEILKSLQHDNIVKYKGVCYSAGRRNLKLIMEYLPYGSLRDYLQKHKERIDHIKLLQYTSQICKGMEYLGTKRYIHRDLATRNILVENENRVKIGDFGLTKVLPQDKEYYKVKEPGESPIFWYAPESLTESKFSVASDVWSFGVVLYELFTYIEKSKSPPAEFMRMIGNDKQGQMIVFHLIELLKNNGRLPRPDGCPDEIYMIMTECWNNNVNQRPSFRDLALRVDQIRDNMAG
The test is described as follows: JAK2 LanthaScreen JH1 Binding Assay. The following applies: JAK2 JH1 1.5 nM, 50 nM tracer, 2 hours at 25° C.; read-out: JH1 BIND. Put shortly:
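FLAG-tagged, biotinylated JAK2 JH1 (aa 826-1132, baculovirus-expressed; 1.5 nM) incubated 2 h at 25° C with compounds, 50 nM fluorescent tracer and 0.5 nM Streptavidin-Tb in Tris pH 7.5 buffer with MgCl2, Brij-35, BSA, EGTA, glycerol, DTT. Nonspecific binding defined with 2 mM ATP; TR-FRET IC50 from four-parameter fit.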

Test [2] concerns the target T2, pseudo-kinase domain (JH2, amino-acids 536-812) of human Wild Type JAK2 (Homo sapiens, UniProt O60674, F794H/W659A/W777A).
T2 construct: pseudo-kinase domain (JH2, amino-acids 536-812 with 3 surface mutations W659A, W777A, F794H); His (C); purchased BPS Bioscience 79463; host or cells: baculovirus expression system
Description: JAK2 LanthaScreen JH2-WT Binding Assay. The settings on record: JAK2 JH2-WT 0.145 nM, 50 nM tracer, 1 hour at 25° C.; read-out: JH2 BIND WT. Put shortly: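 IC50 values derive from four-parameter fits of LanthaScreen signal, measuring displacement of 50 nM fluorescent tracer from 0.145 nM biotinylated, baculovirus-expressed JH2 (536-812) detected by 0.25 nM streptavidin-Tb. Incubation lasts 1 hour at 25° C, pH 7.5.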

Test [3] deals with T3, pseudo-kinase domain (JH2, amino-acids 536-812) of human V617F mutant JAK2 (Homo sapiens, UniProt O60674, F794H/V617F/W659A/W777A).
T3 construct: pseudo-kinase domain (JH2, amino-acids 536-812 with 3 surface mutations W659A, W777A, F794H); His (C); purchased BPS Bioscience 79498; host or cells: baculovirus expression system
T3 sequence (O60674 536-812 V617F/W659A/W777A/F794H): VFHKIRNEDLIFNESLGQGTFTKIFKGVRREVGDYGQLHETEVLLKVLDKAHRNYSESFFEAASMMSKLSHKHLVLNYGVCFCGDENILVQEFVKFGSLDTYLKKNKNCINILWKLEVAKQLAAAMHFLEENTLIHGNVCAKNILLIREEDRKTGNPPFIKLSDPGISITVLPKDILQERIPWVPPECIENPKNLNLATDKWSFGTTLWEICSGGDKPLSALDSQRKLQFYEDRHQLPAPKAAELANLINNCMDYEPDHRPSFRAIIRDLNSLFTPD
The test is described as follows: JAK2 LanthaScreen JH2-V617F Binding Assay. The settings on record: JAK2 JH2-V617F 0.26 nM, 50 nM tracer, 1 hour at 25° C.; read-out: JH2 BIND V617F. Put shortly: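 IC50 values came from four-parameter dose-response fits of LanthaScreen signal, read after compounds sat 1 hour at 25° C with 0.26 nM baculovirus-expressed biotinylated protein, 50 nM fluorescent tracer and 0.25 nM streptavidin-Tb cryptate. Non-specific binding was set with 2 mM ATP.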

In test [4] the target is catalytic domain (JH1, amino acids 808-1132) of human JAK2 (Homo sapiens, UniProt O60674). Description: JAK2 HTRF Enzyme Activity Assay. The following applies: ATP 30 µM, 60 minutes at 25° C.; read-out: V617F ENZ 30 UM. It is filed as biochemical.
Sequence of catalytic domain (JH1, amino acids 808-1132) of human JAK2 (O60674 808-1132 limits assumed): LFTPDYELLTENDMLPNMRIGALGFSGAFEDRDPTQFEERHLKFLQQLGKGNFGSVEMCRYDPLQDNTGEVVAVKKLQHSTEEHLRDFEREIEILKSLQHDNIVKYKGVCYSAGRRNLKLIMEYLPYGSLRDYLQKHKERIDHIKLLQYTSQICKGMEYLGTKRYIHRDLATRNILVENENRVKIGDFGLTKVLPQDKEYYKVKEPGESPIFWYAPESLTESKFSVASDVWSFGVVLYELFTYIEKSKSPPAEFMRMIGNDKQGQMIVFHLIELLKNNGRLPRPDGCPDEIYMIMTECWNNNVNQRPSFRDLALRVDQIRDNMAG

T2 sequence (O60674 536-812 W659A/W777A/F794H): as the sequence (O60674 536-812 V617F/W659A/W777A/F794H) above, with F82V counted along it

`[2H]C([2H])([2H])n1c(=O)n([C@@H]2CC[C@@H](NC(=O)OC)C2)c2cc(Nc3cc(COC4CCC4)cc(-c4ccc5c(c4)OCCO5)n3)ncc21` [Example 63, Methyl ((1R,3R)-3-(6-((4-(cyclobutoxymethyl)-6-(2,3-dihydrobenzo[b][1,4]dioxin-6-yl)pyridin-2-yl)amino)-3-(methyl-d3)-2-oxo-2,3-dihydro-1H-imidazo[4,5-c]pyridin-1-yl)cyclopentyl)carbamate]: the IC50 in test [1] is over 1000 nM; in test [2], at most 10 nM; in test [3] it was 10 to 100 nM; in test [4], over 1000 nM.
With `COC(=O)N[C@@H]1CC[C@@H](n2c(=O)n(C)c3cnc(Nc4cccc(N5CCC(N)C5)n4)cc32)C1` (stereo partly drawn) [Example 64, Methyl ((1R,3R)-3-(6-((6-(3-aminopyrrolidin-1-yl)pyridin-2-yl)amino)-3-methyl-2-oxo-2,3-dihydro-1H-imidazo[4,5-c]pyridin-1-yl)cyclopentyl)carbamate], the IC50 in test [1] was over 1000 nM; in test [2], 10 to 100 nM; in test [3] it was 10 to 100 nM; in test [4], over 1000 nM.
On to `[2H]C([2H])([2H])n1c(=O)n([C@@H]2CC[C@@H](NC(=O)OC)C2)c2cc(Nc3cc(CNC4CCCC4)cc(-c4ccc5c(c4)OCCO5)n3)ncc21` [Example 65, Methyl ((1R,3R)-3-(6-((4-((cyclopentylamino)methyl)-6-(2,3-dihydrobenzo[b][1,4]dioxin-6-yl)pyridin-2-yl)amino)-3-(methyl-d3)-2-oxo-2,3-dihydro-1H-imidazo[4,5-c]pyridin-1-yl)cyclopentyl)carbamate], for which the IC50 in test [1] was over 1000 nM; in test [2], at most 10 nM; in test [3], at most 10 nM; in test [4] it was over 1000 nM.
As for `COC(=O)N[C@@H]1CC[C@@H](n2c(=O)n(C)c3cnc(Nc4ccnc(N5CCCCC5)n4)cc32)C1` [Example 66, Methyl ((1R,3R)-3-(3-methyl-2-oxo-6-((2-(piperidin-1-yl)pyrimidin-4-yl)amino)-2,3-dihydro-1H-imidazo[4,5-c]pyridin-1-yl)cyclopentyl)carbamate], the IC50 was over 1000 nM in test [1], at most 10 nM in test [2], 10 to 100 nM in test [3] and over 1000 nM in test [4].
Consider `COC(=O)N[C@@H]1CC[C@@H](n2c(=O)n(C)c3cnc(Nc4cc(C)cc(-c5ccnc(OC)c5)n4)cc32)C1` [Example 67, Methyl ((1R,3R)-3-(6-((2′-methoxy-4-methyl-[2,4′-bipyridin]-6-yl)amino)-3-methyl-2-oxo-2,3-dihydro-1H-imidazo[4,5-c]pyridin-1-yl)cyclopentyl)carbamate], for which the IC50 in test [1] was over 1000 nM; in test [2], at most 10 nM; in test [3] it was at most 10 nM; in test [4], over 1000 nM.
In the case of `COC(=O)N[C@@H]1CC[C@@H](n2c(=O)n(C)c3cnc(Nc4nc(-c5ccncc5)cs4)cc32)C1` [Example 68, Methyl ((1R,3R)-3-(3-methyl-2-oxo-6-((4-(pyridin-4-yl)thiazol-2-yl)amino)-2,3-dihydro-1H-imidazo[4,5-c]pyridin-1-yl)cyclopentyl)carbamate], the IC50 in test [1] is over 1000 nM; in test [2], 500 to 1000 nM; in test [3], 500 to 1000 nM; in test [4], over 1000 nM.
As for `COC(=O)N[C@@H]1CC[C@@H](n2c(=O)n(C)c3cnc(Nc4ccc(F)c(-c5ccc(C(F)(F)F)nc5)n4)cc32)C1` [Example 69, Methyl ((1R,3R)-3-(6-((3-fluoro-6′-(trifluoromethyl)-[2,3′-bipyridin]-6-yl)amino)-3-methyl-2-oxo-2,3-dihydro-1H-imidazo[4,5-c]pyridin-1-yl)cyclopentyl)carbamate], the IC50 is over 1000 nM in test [1], at most 10 nM in test [2], at most 10 nM in test [3] and over 1000 nM in test [4].
